Earlier results in patent publication US20150080252A1 (Fox Chase Cancer Center, priority 2009, published 2015).
Counter-ions that a name gives are not always drawn.

System: metastatic and/or unresectable GIST

Compound: Cc1ccc(NC(=O)c2ccc(CN3CCN(C)CC3)cc2)cc1Nc1nccc(-c2cccnc2)n1 [IM, imatinib mesylate]
- patients with objective responses or stable disease (metastatic and/or unresectable GIST): > 80%
- median time to partial response (PR) (≧30% reduction) (seminal phase II metastatic GIST study): 16 weeks
